Test system: advanced solid tumors with FGFR mutations or fusions
Assay: Phase 2 RAGNAR study (NCT04083976): tumor response per RECIST v1.1 or RANO by IRC and investigator (ORR, DOR, DCR, CBR, PFS, OS, best overall response)
Format: in vivo, human
Conditions: for DOR of longest ongoing PR: + = censored, IA3; for Clinical Benefit Rate n(%) (95% CI) / Confirmed Objective Response Rate n(%) (95% CI) / Disease Control Rate n(%) (95% CI) / Median DOR (95% CI) / Median PFS (95% CI) / Median OS (95% CI): BPC; for Clinical Benefit Rate n(%) (95% CI) / Confirmed Objective Response Rate n(%) (95% CI) / Disease Control Rate n(%) (95% CI) / Median DOR (95% CI) / Median PFS (95% CI): IRC
From the text: Subjects ≥12 years of age with target FGFR mutations or any FGFR gene fusions were enrolled into the Broad Panel Cohort. […] A subgroup of subjects in the Broad Panel Cohort with a select panel of pre-specified FGFR markers were identified as the Core Panel Cohort (for analysis only). While the Broad Panel Cohort consists of target FGFR mutations and any fusions, the Core Panel Cohort consists of a select subset of FGFR mutations or fusions. Subjects with any other FGFR mutations that are not captured in the Broad Panel Cohort are included in the study as the Exploratory Cohort. A separate Cholangiocarcinoma Expansion Cohort enrolled subjects with target FGFR mutations or any FGFR gene fusion once the Broad Panel Cohort reached the cap of approximately 30 subjects for cholangiocarcinoma. […] Adolescent subjects enrolled in the Broad Panel Cohort (≥12 to <18 years) are considered part of the Broad Panel Cohort and the Pediatric Cohort.
(§1) Each dose was taken approximately at the same time each day, with or without food.
The Treated Population will consist of all subjects who receive at least 1 dose of study drug. The Treated Population is the primary population for efficacy and safety analyses. […] Adequate disease assessment is defined as having enough evidence to indicate that progression has or has not occurred.
Statistical Methods: For the Broad Panel Cohort, the primary endpoint was overall response rate (ORR) based on RECIST v1.1. or RANO as assessed by the IRC and was calculated with a 95% 2-sided exact confidence interval (CI). The primary endpoint was analyzed using data from the Treated Population (defined as all subjects who receive at least 1 dose of study drug) in the Broad Panel Cohort and the Core Panel Cohort. An error-spending function approach was used to split the significance level for the Broad Panel Cohort and the Core Panel Cohort.
as §1

[1] = CUP (Carcinoma of Unknown Primary), N=8
[2] = EDMTL (Endometrial Cancer), N=6
[3] = HNSCC (Squamous Cell Head and Neck Cancers), N=5
[4] = Others (tumor histologies with 1 subject treated), N=14
[5] = PANCR (Pancreatic Cancer), N=13
[6] = SALIV (Salivary Gland Cancer), N=5
[7] = nonsqNSCLC (Non-squamous NSCLC), N=7
[8] = BRST (breast cancer), N=7, efficacy analysis set, investigator assessment

Structure (SMILES): COc1cc(OC)cc(N(CCNC(C)C)c2ccc3ncc(-c4cnn(C)c4)nc3c2)c1 [erdafitinib, N-(3,5-dimethoxy-phenyl)-N′-(1-methylethyl)-N-[3-(1-methyl-1H-pyrazol-4-yl)quinoxalin-6-yl]ethane-1,2-diamine]
- DOR of longest ongoing PR (1 patient with endometrial cancer): ≥ 13.7 months
- DOR of longest ongoing PR (1 patient with pancreatic cancer): ≥ 13.8 months
- clinical benefit rate (CBR: CR+PR+SD>4 months) (69/124, efficacy analysis set): 55.6%
- Objective Response Rate (BCC, N=1, efficacy analysis set, investigator assessment): 0 (NE, NE) %
- Clinical Benefit Rate n(%) (95% CI) (BRST (Breast Cancer), N=14): 6 (42.9%)
- Confirmed Objective Response Rate n(%) (95% CI) (BRST (Breast Cancer), N=14): 5 (35.7%)
- Disease Control Rate n(%) (95% CI) (BRST (Breast Cancer), N=14): 9 (64.3%)
- Median DOR (95% CI) (BRST (Breast Cancer), N=14): NE (NE, NE)
- Median PFS (95% CI) (BRST (Breast Cancer), N=14): 4.17 (1.22, NE) months
- Confirmed Objective Response Rate n(%) (95% CI) (CCA (Cholangiocarcinoma), N=31): 16 (51.6%)
- Disease Control Rate n(%) (95% CI) (CCA (Cholangiocarcinoma), N=31): 30 (96.8%)
- Median PFS (95% CI) (CCA (Cholangiocarcinoma), N=31): 8.25 (6.41, 9.72) months
- Clinical Benefit Rate n(%) (95% CI) (CRC (Colorectal Cancer), N=6): 1 (16.7%)
- Confirmed Objective Response Rate n(%) (95% CI) (CRC (Colorectal Cancer), N=6): 0 (NE, NE) %
- Disease Control Rate n(%) (95% CI) (CRC (Colorectal Cancer), N=6): 2 (33.3%)
- Median PFS (95% CI) (CRC (Colorectal Cancer), N=6): 1.15 (0.43, NE) months
- Clinical Benefit Rate n(%) (95% CI) (CRVX (Cervical Cancer), N=4): 1 (25.0%)
- Confirmed Objective Response Rate n(%) (95% CI) (CRVX (Cervical Cancer), N=4): 0 (NE, NE) %
- Disease Control Rate n(%) (95% CI) (CRVX (Cervical Cancer), N=4): 3 (75.0%)
- Median PFS (95% CI) (CRVX (Cervical Cancer), N=4): 3.52 (1.38, NE) months
- Clinical Benefit Rate n(%) (95% CI) [1]: 5 (62.5%)
- Confirmed Objective Response Rate n(%) (95% CI) [1]: 2 (25.0%)
- Disease Control Rate n(%) (95% CI) [1]: 7 (87.5%)
- Median DOR (95% CI) [1]: NE (2.66, NE)
- Median PFS (95% CI) [1]: 4.78 (2.04, NE) months
- Clinical Benefit Rate n(%) (95% CI) [2]: 3 (50.0%)
- Confirmed Objective Response Rate n(%) (95% CI) [2]: 3 (50.0%)
- Disease Control Rate n(%) (95% CI) [2]: 4 (66.7%)
- Median PFS (95% CI) [2]: 4.11 (1.31, NE) months
- Clinical Benefit Rate n(%) (95% CI) (ESOPH (Esophageal Cancer), N=6): 1 (16.7%)
- Confirmed Objective Response Rate n(%) (95% CI) (ESOPH (Esophageal Cancer), N=6): 1 (16.7%)
- Disease Control Rate n(%) (95% CI) (ESOPH (Esophageal Cancer), N=6): 2 (33.3%)
- Median PFS (95% CI) (ESOPH (Esophageal Cancer), N=6): 1.31 (0.30, NE) months
- Clinical Benefit Rate n(%) (95% CI) (GSTRC (Gastric Cancer), N=5): 0 (NE, NE) %
- Confirmed Objective Response Rate n(%) (95% CI) (GSTRC (Gastric Cancer), N=5): 0 (NE, NE) %
- Disease Control Rate n(%) (95% CI) (GSTRC (Gastric Cancer), N=5): 3 (60.0%)
- Median PFS (95% CI) (GSTRC (Gastric Cancer), N=5): 2.30 (1.22, NE) months
- Clinical Benefit Rate n(%) (95% CI) (HGG (High-grade Glioma), N=29): 10 (34.5%)
- Confirmed Objective Response Rate n(%) (95% CI) (HGG (High-grade Glioma), N=29): 3 (10.3%)
- Disease Control Rate n(%) (95% CI) (HGG (High-grade Glioma), N=29): 16 (55.2%)
- Median DOR (95% CI) (HGG (High-grade Glioma), N=29): NE (NE, NE)
- Median PFS (95% CI) (HGG (High-grade Glioma), N=29): 3.86 (2.96, 5.19) months
- Clinical Benefit Rate n(%) (95% CI) [3]: 2 (40.0%)
- Confirmed Objective Response Rate n(%) (95% CI) [3]: 2 (40.0%)
- Disease Control Rate n(%) (95% CI) [3]: 4 (80.0%)
- Median PFS (95% CI) [3]: 4.04 (0.39, NE) months
- Clinical Benefit Rate n(%) (95% CI) (LGG (Low-grade Glioma), N=6): 3 (50.0%)
- Confirmed Objective Response Rate n(%) (95% CI) (LGG (Low-grade Glioma), N=6): 2 (33.3%)
- Disease Control Rate n(%) (95% CI) (LGG (Low-grade Glioma), N=6): 4 (66.7%)
- Median DOR (95% CI) (LGG (Low-grade Glioma), N=6): NE (NE, NE)
- Median PFS (95% CI) (LGG (Low-grade Glioma), N=6): NE (2.76, NE)
- Clinical Benefit Rate n(%) (95% CI) (OVAR (Ovarian Cancer), N=4): 1 (25.0%)
- Confirmed Objective Response Rate n(%) (95% CI) (OVAR (Ovarian Cancer), N=4): 1 (25.0%)
- Disease Control Rate n(%) (95% CI) (OVAR (Ovarian Cancer), N=4): 2 (50.0%)
- Median PFS (95% CI) (OVAR (Ovarian Cancer), N=4): 6.70 (NE, NE) months
- Clinical Benefit Rate n(%) (95% CI) (Other, N=31): 18 (58.1%)
- Confirmed Objective Response Rate n(%) (95% CI) (Other, N=31): 8 (25.8%)
- Median PFS (95% CI) (Other, N=31): 5.52 (2.76, 8.61) months
- Clinical Benefit Rate n(%) (95% CI) [4]: 7 (50.0%)
- Confirmed Objective Response Rate n(%) (95% CI) [4]: 2 (14.3%)
- Disease Control Rate n(%) (95% CI) [4]: 11 (78.6%)
- Median DOR (95% CI) [4]: NE (NE, NE)
- Median PFS (95% CI) [4]: 4.39 (1.41, NE) months
- Clinical Benefit Rate n(%) (95% CI) [5]: 6 (46.2%)
- Confirmed Objective Response Rate n(%) (95% CI) [5]: 5 (38.5%)
- Disease Control Rate n(%) (95% CI) [5]: 12 (92.3%)
- Median PFS (95% CI) [5]: 4.76 (3.02, NE) months
- Clinical Benefit Rate n(%) (95% CI) (PCA (Prostate Cancer), N=2): 0 (NE, NE) %
- Confirmed Objective Response Rate n(%) (95% CI) (PCA (Prostate Cancer), N=2): 0 (NE, NE) %
- Disease Control Rate n(%) (95% CI) (PCA (Prostate Cancer), N=2): 0 (NE, NE) %
- Median PFS (95% CI) (PCA (Prostate Cancer), N=2): 1.26 (1.18, NE) months
- Clinical Benefit Rate n(%) (95% CI) [6]: 5 (100.0%)
- Confirmed Objective Response Rate n(%) (95% CI) [6]: 4 (80.0%)
- Disease Control Rate n(%) (95% CI) [6]: 5 (100.0%)
- Median PFS (95% CI) [6]: NE (8.34, NE)
- Clinical Benefit Rate n(%) (95% CI) (STS (Soft Tissue Sarcoma), N=2): 1 (50.0%)
- Confirmed Objective Response Rate n(%) (95% CI) (STS (Soft Tissue Sarcoma), N=2): 0 (NE, NE) %
- Disease Control Rate n(%) (95% CI) (STS (Soft Tissue Sarcoma), N=2): 1 (50.0%)
- Median PFS (95% CI) (STS (Soft Tissue Sarcoma), N=2): NE (3.94, NE)
- Clinical Benefit Rate n(%) (95% CI) (Total, N=178): 82 (46.1%)
- Confirmed Objective Response Rate n(%) (95% CI) (Total, N=178): 52 (29.2%)
- Disease Control Rate n(%) (95% CI) (Total, N=178): 129 (72.5%)
- Median PFS (95% CI) (Total, N=178): 4.21 (4.04, 5.52) months
- Clinical Benefit Rate n(%) (95% CI) [7]: 3 (42.9%)
- Confirmed Objective Response Rate n(%) (95% CI) [7]: 3 (42.9%)
- Disease Control Rate n(%) (95% CI) [7]: 4 (57.1%)
- Median PFS (95% CI) [7]: 4.07 (1.38, NE) months
- Clinical Benefit Rate n(%) (95% CI) (sqNSCLC (Squamous NSCLC), N=11): 3 (27.3%)
- Confirmed Objective Response Rate n(%) (95% CI) (sqNSCLC (Squamous NSCLC), N=11): 3 (27.3%)
- Disease Control Rate n(%) (95% CI) (sqNSCLC (Squamous NSCLC), N=11): 10 (90.9%)
- Median PFS (95% CI) (sqNSCLC (Squamous NSCLC), N=11): 5.03 (2.37, NE) months
- Median OS (95% CI) (BRST (Breast Cancer), N=14): 8.87 (4.86, NE) months
- Median OS (95% CI) (CCA (Cholangiocarcinoma), N=31): 14.46 (12.09, NE) months
- Median OS (95% CI) (CRC (Colorectal Cancer), N=6): 5.68 (1.22, NE) months
- Median OS (95% CI) (CRVX (Cervical Cancer), N=4): 4.40 (3.48, NE) months
- Median OS (95% CI) [1]: 11.99 (2.99, NE) months
- Median OS (95% CI) [2]: NE (1.74, NE)
- Median OS (95% CI) (ESOPH (Esophageal Cancer), N=6): 3.42 (1.28, NE) months
- Median OS (95% CI) (GSTRC (Gastric Cancer), N=5): 3.29 (2.89, NE) months
- Median OS (95% CI) (HGG (High-grade Glioma), N=29): 6.49 (3.75, 14.39) months
- Median OS (95% CI) [3]: NE (0.39, NE)
- Median OS (95% CI) (LGG (Low-grade Glioma), N=6): 10.94 (5.72, NE) months
- Median OS (95% CI) (OVAR (Ovarian Cancer), N=4): NE (NE, NE)
- Median OS (95% CI) (Other, N=31): NE (3.94, NE)
- Median OS (95% CI) [4]: NE (3.29, NE)
- Median OS (95% CI) [5]: 12.12 (7.26, NE) months
- Median OS (95% CI) (PCA (Prostate Cancer), N=2): NE (3.48, NE)
- Median OS (95% CI) [6]: NE (NE, NE)
- Median OS (95% CI) (STS (Soft Tissue Sarcoma), N=2): NE (3.94, NE)
- Median OS (95% CI) (Total, N=178): 10.94 (7.89, 14.26) months
- Median OS (95% CI) [7]: NE (2.40, NE)
- Median OS (95% CI) (sqNSCLC (Squamous NSCLC), N=11): 6.83 (2.37, NE) months
- Median DOR [8]: 6.08 (NE, NE) months
- Objective Response Rate [8]: 3 (42.9%) (9.9%, 81.6%)
